Test results reported in ChEMBL document CHEMBL1201862, “PubChem BioAssay data set” (2004).
Where “and” joins values, the source holds several entries; their conditions need not be identical. Equal entries are not always repeated.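 Step 1: Grow cells in 96-well plates. Step 2: Expose to compound for 48 hours at 5 concentrations. Step 3: Interpolate endpoints linearly; if unreached, use highest concentration. GI50: concentration for 50% inhibition of growth.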 Calls of active or inactive are those of the source. No stated cut-off is given here; in the data, active = GI50 up to about 1.1 µM and inactive = higher. Where a SMILES comes first, the peptide text is derived from it. [ ]: non-standard residue; d: D form. The star is where a group is joined. Chg = N[CH](C(=O)O)C1CCCCC1; Cbz = O=C(OCc1ccccc1)*; OBn = c1ccc(CO*)cc1

Tests used:
Test in all cases: NCI-60 cell line screen, 48 h
[1] = tested on: SF-295
[2] = tested on: IGROV-1
[3] = tested on: HL-60
[4] = tested on: UACC-257
[5] = tested on: MCF7
[6] = tested on: OVCAR-3
[7] = tested on: HCT-15
[8] = tested on: T47D
[9] = tested on: COLO 205
[10] = tested on: U-251
[11] = tested on: OVCAR-8
[12] = tested on: SF-539
[13] = tested on: HCC 2998
[14] = tested on: SN12C
[15] = tested on: NCI-H23
[16] = tested on: EKVX
[17] = tested on: SR
[18] = tested on: A549
[19] = tested on: LOX IMVI
[20] = tested on: SW-620
[21] = tested on: SK-MEL-28
[22] = tested on: CCRF-CEM
[23] = tested on: HOP-92
[24] = tested on: MDA-N
[25] = tested on: RPMI-8226
[26] = tested on: SNB-19
[27] = tested on: RXF 393
[28] = tested on: Malme-3M
[29] = tested on: OVCAR-5
[30] = tested on: M14
[31] = tested on: ACHN
[32] = tested on: CAKI-1
[33] = tested on: SK-OV-3
[34] = tested on: SNB-75
[35] = tested on: DU-145
[36] = tested on: UACC-62
[37] = tested on: NCI-H522
[38] = tested on: NCI/ADR-RES
[39] = tested on: MOLT-4
[40] = tested on: NCI-H460
[41] = tested on: SK-MEL-2
[42] = tested on: MDA-MB-435
[43] = tested on: SF-268
[44] = tested on: TK-10
[45] = tested on: HCT-116
[46] = tested on: 786-0
[47] = tested on: HT-29
[48] = tested on: NCI-H226
[49] = tested on: MDA-MB-231
[50] = tested on: HOP-62
[51] = tested on: Hs-578T
[52] = tested on: SK-MEL-5
[53] = tested on: UO-31
[54] = tested on: K562
[55] = tested on: KM12
[56] = tested on: PC-3
[57] = tested on: OVCAR-4
[58] = tested on: A498

SMILES: COc1c(C(=O)/C(=N/Nc2cccc(Cl)c2)C(C)=O)c(O)c(OC)c2occc12
- GI50 [1]: 58.1 µM (inactive)
- GI50 [2]: > 100 µM (inactive)
- GI50 [3]: > 100 µM (inactive)
- GI50 [4]: > 100 µM (inactive)
- GI50 [5]: > 100 µM (inactive)
- GI50 [6]: > 100 µM (inactive)
- GI50 [7]: > 100 µM
- GI50 [8]: 50.8 µM (inactive)
- GI50 [9]: > 100 µM (inactive)
- GI50 [10]: > 100 µM (inactive)
- GI50 [11]: 60.4 µM (inactive)
- GI50 [12]: > 100 µM (inactive)
- GI50 [13]: 31.5 µM (inactive)
- GI50 [14]: 61.2 µM (inactive)
- GI50 [15]: > 100 µM (inactive)
- GI50 [16]: 78.7 µM (inactive)
- GI50 [17]: > 100 µM (inactive)
- GI50 [18]: > 100 µM (inactive)
- GI50 [19]: 56.4 µM (inactive)
- GI50 [20]: 76.4 µM (inactive)
- GI50 [21]: > 100 µM (inactive)
- GI50 [22]: 88.1 µM (inactive)
- GI50 [23]: 67.1 µM (inactive)
- GI50 [24]: > 100 µM (inactive)
- GI50 [25]: 80.9 µM (inactive)
- GI50 [26]: > 100 µM (inactive)
- GI50 [27]: 34.6 µM (inactive)
- GI50 [28]: 60.1 µM (inactive)
- GI50 [29]: > 100 µM (inactive)
- GI50 [30]: > 100 µM (inactive)
- GI50 [31]: 70 µM (inactive)
- GI50 [32]: > 100 µM (inactive)
- GI50 [33]: > 100 µM (inactive)
- GI50 [34]: 13 µM (inactive)
- GI50 [35]: > 100 µM (inactive)
- GI50 [36]: > 100 µM (inactive)
- GI50 [37]: > 100 µM (inactive)
- GI50 [38]: > 100 µM (inactive)
- GI50 [39]: 39.5 µM (inactive)
- GI50 [40]: 65.8 µM (inactive)
- GI50 [41]: > 100 µM (inactive)
- GI50 [42]: > 100 µM (inactive)
- GI50 [43]: 87.3 µM (inactive)
- GI50 [44]: > 100 µM (inactive)
- GI50 [45]: > 100 µM (inactive)
- GI50 [46]: > 100 µM (inactive)
- GI50 [47]: 95.1 µM (inactive)
- GI50 [48]: > 100 µM (inactive)
- GI50 [49]: 73.6 µM (inactive)
- GI50 [50]: > 100 µM (inactive)
- GI50 [51]: 70 µM (inactive)
- GI50 [52]: > 100 µM (inactive)
- GI50 [53]: 37.2 µM (inactive)
- GI50 [54]: > 100 µM (inactive)
- GI50 [55]: > 100 µM (inactive)
- GI50 [56]: 53.5 µM (inactive)

SMILES: COC(=O)[C@@H]1CC(C(C[N+](=O)[O-])c2ccc(O[Si](C)(C)C(C)(C)C)cc2)C(=O)N1C(=O)OC(C)(C)C (stereo partly specified)
- GI50 [1]: > 100 µM (inactive) and 59.2 µM (inactive)
- GI50 [2]: > 100 µM (inactive)
- GI50 [4]: > 100 µM (inactive) and 88.7 µM (inactive)
- GI50 [5]: 45.5 µM (inactive) and 29.6 µM (inactive)
- GI50 [6]: > 100 µM (inactive)
- GI50 [8]: 22.1 µM (inactive) and 32.5 µM (inactive)
- GI50 [10]: > 100 µM (inactive) and 78 µM (inactive)
- GI50 [11]: > 100 µM (inactive)
- GI50 [12]: > 100 µM (inactive)
- GI50 [14]: 43.6 µM (inactive) and 69.8 µM (inactive)
- GI50 [16]: > 100 µM (inactive) and 61.5 µM (inactive)
- GI50 [17]: 21 µM (inactive) and 33.8 µM (inactive)
- GI50 [18]: 67.6 µM (inactive) and 37.4 µM (inactive)
- GI50 [19]: > 100 µM (inactive)
- GI50 [20]: > 100 µM (inactive)
- GI50 [21]: > 100 µM (inactive)
- GI50 [22]: 27.7 µM (inactive) and 18.1 µM (inactive)
- GI50 [57]: 53.6 µM (inactive) and 29.6 µM (inactive)
- GI50 [23]: 40.1 µM (inactive) and 61 µM (inactive)
- GI50 [24]: > 100 µM (inactive)
- GI50 [26]: > 100 µM (inactive)
- GI50 [27]: 29.9 µM (inactive) and 20.6 µM (inactive)
- GI50 [28]: > 100 µM (inactive) and 97.9 µM (inactive)
- GI50 [29]: > 100 µM (inactive)
- GI50 [30]: 52.5 µM (inactive)
- GI50 [32]: > 100 µM (inactive) and 90.4 µM (inactive)
- GI50 [33]: > 100 µM (inactive)
- GI50 [34]: > 100 µM (inactive)
- GI50 [35]: > 100 µM (inactive)
- GI50 [58]: > 100 µM (inactive)
- GI50 [37]: 53.2 µM (inactive) and 60.5 µM (inactive)
- GI50 [41]: > 100 µM (inactive)
- GI50 [42]: > 100 µM (inactive) and 73.5 µM (inactive)
- GI50 [43]: > 100 µM (inactive) and 95.3 µM (inactive)
- GI50 [44]: > 100 µM (inactive)
- GI50 [45]: 63.1 µM (inactive)
- GI50 [46]: > 100 µM (inactive)
- GI50 [49]: > 100 µM (inactive)
- GI50 [50]: > 100 µM (inactive)
- GI50 [51]: > 100 µM (inactive)
- GI50 [53]: 32.7 µM (inactive) and 60.7 µM (inactive)
- GI50 [54]: 22.9 µM (inactive) and 32.4 µM (inactive)
- GI50 [55]: > 100 µM (inactive) and 76.6 µM (inactive)

SMILES: COC(=O)C(NC(=O)C(CC(=O)OCc1ccccc1)NC(=O)OCc1ccccc1)C1CCCCC1 (stereo unspecified) (Cbz-Asp(OBn)-[Chg]-OMe; configuration not given here)
- GI50 [1]: 67.3 µM (inactive)
- GI50 [2]: > 100 µM (inactive)
- GI50 [3]: > 100 µM (inactive)
- GI50 [4]: > 100 µM (inactive)
- GI50 [5]: > 100 µM (inactive)
- GI50 [6]: > 100 µM (inactive)
- GI50 [7]: > 100 µM
- GI50 [8]: 48 µM (inactive)
- GI50 [9]: > 100 µM (inactive)
- GI50 [10]: > 100 µM (inactive)
- GI50 [11]: > 100 µM (inactive)
- GI50 [12]: 59.7 µM (inactive)
- GI50 [13]: > 100 µM (inactive)
- GI50 [14]: > 100 µM (inactive)
- GI50 [15]: > 100 µM (inactive)
- GI50 [16]: > 100 µM (inactive)
- GI50 [17]: 59 µM (inactive)
- GI50 [18]: > 100 µM (inactive)
- GI50 [19]: > 100 µM (inactive)
- GI50 [20]: > 100 µM (inactive)
- GI50 [21]: > 100 µM (inactive)
- GI50 [22]: > 100 µM (inactive)
- GI50 [57]: > 100 µM (inactive)
- GI50 [23]: 21.7 µM (inactive)
- GI50 [24]: > 100 µM (inactive)
- GI50 [25]: 48.2 µM (inactive)
- GI50 [26]: > 100 µM (inactive)
- GI50 [27]: > 100 µM (inactive)
- GI50 [28]: > 100 µM (inactive)
- GI50 [29]: > 100 µM (inactive)
- GI50 [30]: > 100 µM (inactive)
- GI50 [31]: > 100 µM (inactive)
- GI50 [32]: > 100 µM (inactive)
- GI50 [33]: > 100 µM (inactive)
- GI50 [34]: 62.8 µM (inactive)
- GI50 [35]: > 100 µM (inactive)
- GI50 [36]: > 100 µM (inactive)
- GI50 [37]: > 100 µM (inactive)
- GI50 [38]: > 100 µM (inactive)
- GI50 [39]: 38.3 µM (inactive)
- GI50 [40]: > 100 µM (inactive)
- GI50 [41]: 51.9 µM (inactive)
- GI50 [42]: > 100 µM (inactive)
- GI50 [43]: > 100 µM (inactive)
- GI50 [44]: > 100 µM (inactive)
- GI50 [45]: > 100 µM (inactive)
- GI50 [46]: > 100 µM (inactive)
- GI50 [47]: 78.3 µM (inactive)
- GI50 [48]: > 100 µM (inactive)
- GI50 [49]: 84.3 µM (inactive)
- GI50 [50]: > 100 µM (inactive)
- GI50 [51]: < 0.01 µM (active)
- GI50 [52]: 0.195 µM (active)
- GI50 [53]: 69.7 µM (inactive)
- GI50 [54]: > 100 µM (inactive)
- GI50 [55]: > 100 µM (inactive)
- GI50 [56]: > 100 µM (inactive)
